Measured values as given in patent US20250144067A1, “PERSONALIZED STARVATION THERAPY FOR CANCER” (Faeth Therapeutics, Inc., priority 2021, published 2025).
Structures can show the parent of a compound that is named as a salt. Where two headings read alike, the source gives them in different places.

Experiments:
[1] = system: NCI-H292 lung cancer cells; assay: FDA drug screening, complete media vs cholesterol-free media with simvastatin (TABLE 2); type: cell-based, human
[2] = system: NCI-H292 lung cancer cells; assay: FDA drug screening, complete media vs cholesterol-free media without statin (TABLE 1); type: cell-based, human
[3] = NCI-H292 cells, drug in cholesterol-free media with simvastatin 0.04 μM
[4] = NCI-H292 cells, drug in complete media
[5] = complete media vs cholesterol-free media + simvastatin (0.04 μM), >0 enhanced anti-cancer activity, about 0 neutral, <0 antagonist
[6] = Complete minus Cholesterol-free, >0 enhanced anti-cancer activity, about 0 neutral, <0 antagonist
[7] = NCI-H292 cells, cholesterol-free media without statin, FDA drug library screen
[8] = NCI-H292 cells, complete media, FDA drug library screen
[9] = NCI-H292 cells, FDA drug library screen, cholesterol-free media with simvastatin 0.04 μM
[10] = NCI-H292 cells, FDA drug library screen, complete media
[11] = Complete minus Cholesterol-free, greater than 0 enhanced anti-cancer activity, about 0 neutral, below 0 antagonists
[12] = NCI-H292 cells in cholesterol-free media without statin
[13] = NCI-H292 cells in complete media
[14] = NCI-H292 cells, cholesterol-free media with simvastatin 0.04 μM, FDA drug library screen (TABLE 2)
[15] = NCI-H292 cells, complete media, FDA drug library screen (TABLE 2)
[16] = complete media minus cholesterol-free media + simvastatin (0.04 μM), […]
[17] = Complete minus Cholesterol-free, […]
[18] = complete media minus cholesterol-free media + simvastatin, >0 enhanced anti-cancer activity, about 0 neutral, <0 antagonist
[19] = NCI-H292 cells, FDA library drug in cholesterol-free media with simvastatin 0.04 μM
[20] = NCI-H292 cells, FDA library drug in complete media
[21] = complete vs cholesterol-free media, >0 enhanced anti-cancer activity, about 0 neutral, <0 antagonist
[22] = NCI-H292 cells, cholesterol-free media with simvastatin 0.04 μM, cell growth value in FDA drug screen
[23] = NCI-H292 cells, complete media, cell growth value in FDA drug screen

In the case of `Brc1c(NC2=NCCN2)ccc2nccnc12` [Brimonidine], the “Cholesterol-free media + simvastatin (0.04 μM)” value [1, 3] is reported as 0.9016, the “Complete Media” value [1, 4] is reported as 0.7279 and the Difference [1, 5] is reported as −0.17. It also gave a Difference [2, 6] of −0.01, a Cholesterol-free [2, 7] of 0.9724 and a Complete [2, 8] of 0.9659.

With `Cc1cccc(Cc2c[nH]cn2)c1C` [Detomidine (hydrochloride)] the “Cholesterol-free media + simvastatin (0.04 μM)” value [1, 9] was 1.019, the “Complete Media” value [1, 10] was 0.9319 and the Difference [1, 5] was −0.09. It also gave a Difference [2, 11] of −0.47, a Cholesterol-free [2, 12] of 1.106 and a Complete [2, 13] of 0.6322.

`CC1=C(C(=O)Nc2ccccc2)SCCO1` [Carboxin] was tested, and the “Cholesterol-free media + simvastatin (0.04 μM)” value [1, 14] was 0.9577, the “Complete Media” value [1, 15] was 0.9272 and the Difference [1, 16] was −0.03. For the same compound, the Difference [2, 17] was −0.07, the Cholesterol-free [2, 7] was 1.397 and the Complete [2, 8] was 1.326.

`Cl.Cl.OCCN1CCN(CCC=C2c3ccccc3Sc3ccc(C(F)(F)F)cc32)CC1` (mixture of isomers) [Flupentixol dihydrochloride] was tested, and the “Cholesterol-free media + simvastatin (0.04 μM)” value [1, 9] was 0.5255, the “Complete Media” value [1, 10] was 1.084 and the Difference [1, 18] was 0.56. For the same compound, the Cholesterol-free ([2]; NCI-H292 cells, cholesterol-free media without statin) was 1.101, the Complete ([2]; NCI-H292 cells, complete media) was 0.7804 and the Difference ([2]; complete vs cholesterol-free media, greater than 0 enhanced anti-cancer activity, about 0 neutral, below 0 antagonists) was −0.32.

`CCCC1O[C@@H]2C[C@H]3[C@@H]4CCC5=CC(=O)C=C[C@]5(C)[C@H]4[C@@H](O)C[C@]3(C)[C@]2(C(=O)CO)O1` (stereo partly drawn) [Budesonide] was tested, and the “Cholesterol-free media + simvastatin (0.04 μM)” value [1, 19] was 1.254, the “Complete Media” value [1, 20] was 0.6405 and the Difference [1, 5] was −0.61. The Cholesterol-free [2, 7] was 0.6924, the Complete [2, 8] was 1.034 and the Difference [2, 21] was 0.34.

With `COc1cc(NS(=O)(=O)c2ccc(N)cc2)ncn1` [Sulfamonomethoxine] the “Cholesterol-free media + simvastatin (0.04 μM)” value [1, 19] was 1.013, the “Complete Media” value [1, 20] was 0.7465 and the Difference [1, 5] was −0.27. It also gave a Difference [2, 11] of −0.48, a Cholesterol-free [2, 12] of 1.378 and a Complete [2, 13] of 0.8971.

In the case of `N[C@H]1CONC1=O` [L-Cycloserine], the “Cholesterol-free media + simvastatin (0.04 μM)” value [1, 22] is reported as 0.815, the “Complete Media” value [1, 23] is reported as 0.9066 and the Difference [1, 18] is reported as 0.09. The Difference [2, 11] was −0.78, the Cholesterol-free [2, 12] was 1.458 and the Complete [2, 13] was 0.6746.

With `N=C(N)NC(=O)c1nc(Cl)c(N)nc1N` [Amiloride hydrochloride dihydrate] the “Cholesterol-free media + simvastatin (0.04 μM)” value [1, 3] was 1.232, the “Complete Media” value [1, 4] was 1.07 and the Difference [1, 5] was −0.16. It also gave a Cholesterol-free [2, 7] of 0.9043, a Complete [2, 8] of 1.06 and a Difference [2, 21] of 0.16.

With `OCCOc1ccc(/C(=C(/CCCl)c2ccccc2)c2ccccc2)cc1` [Ospemifene] the “Cholesterol-free media + simvastatin (0.04 μM)” value [1] was 1.909, the “Complete Media” value [1] was 1.222 and the Difference [1] was −0.69. It also gave a Cholesterol-free [2] of 1.029, a Complete [2] of 1.255 and a Difference [2] of 0.23.

In the case of `CO[C@H]1C[C@@H]2CC[C@@H](C)[C@@](O)(O2)C(=O)C(=O)N2CCCC[C@H]2C(=O)O[C@H]([C@H](C)C[C@@H]2CC[C@@H](OC(=O)C(C)(CO)CO)[C@H](OC)C2)CC(=O)[C@H](C)/C=C(\C)[C@@H](O)[C@@H](OC)C(=O)[C@H](C)C[C@H](C)/C=C/C=C/C=C/1C` [Temsirolimus], the “Cholesterol-free media + simvastatin (0.04 μM)” value [1, 22] is reported as 0.4472, the “Complete Media” value [1, 23] is reported as 0.5571 and the Difference [1, 18] is reported as 0.11. It also gave a Difference [2, 6] of −0.06, a Cholesterol-free [2, 7] of 0.4176 and a Complete [2, 8] of 0.3544.

Verteporfin was tested, and the “Cholesterol-free media + simvastatin (0.04 μM)” value [1, 9] was 0.616, the “Complete Media” value [1, 10] was 0.9298 and the Difference [1, 18] was 0.31. For the same compound, the Difference [2, 6] was −0.04, the Cholesterol-free [2, 7] was 0.26 and the Complete [2, 8] was 0.2188.

`CC(=O)C1CCC2C3CC=C4CC(OS(=O)(=O)O)CCC4(C)C3CCC12C` (stereo not drawn) [Pregnenolone monosulfate] was tested, and the “Cholesterol-free media + simvastatin (0.04 μM)” value [1, 14] was 1.305, the “Complete Media” value [1, 15] was 1.254 and the Difference [1, 16] was −0.05. For the same compound, the Difference [2, 17] was −0.11, the Cholesterol-free ([2]; NCI-H292 cells, FDA drug library screen, cholesterol-free media without statin) was 1.032 and the Complete [2, 10] was 0.9202.
